In the supplement of paper PMC13380429:
± gives the standard deviation of the averaged measurements.

Experiments:
Settings in all cases: 72 h
HepG2 [1] = assay: relative viability EC50 (midpoint between 100% and the lowest measured viability); higher = less toxic
Calu-3 [2] = assay: as above
U2OS [3] = assay: as above
Vero E6 [4] = assay: as above
Caco-2 [5] = assay: as above
HepG2 [6] = assay: drug sensitivity score (DSS) for viability; higher = more toxic; extreme values may be limits of the assay
Calu-3 [7] = assay: as above
U2OS [8] = assay: as above
Vero E6 [9] = assay: as above
Caco-2 [10] = assay: as above
HepG2 [11] = assay: cell viability relative to DMSO; higher = less toxic
Calu-3 [12] = assay: as above
U2OS [13] = assay: as above
Vero E6 [14] = assay: as above
Caco-2 [15] = assay: as above

CN1C(=O)N(c2ccc(C#N)c(C(F)(F)F)c2)C(=O)[C@]1(CO)c1ccccc1 [GLPG0492-R-enantiomer]
relative viability EC50 (HepG2 [1]): > 10 µM
relative viability EC50 (Calu-3 [2]): > 10 µM
relative viability EC50 (U2OS [3]): > 10 µM
relative viability EC50 (Vero E6 [4]): > 10 µM
relative viability EC50 (Caco-2 [5]): > 10 µM
drug sensitivity score (HepG2 [6]): 0
drug sensitivity score (Calu-3 [7]): 0
drug sensitivity score (U2OS [8]): 0
drug sensitivity score (Vero E6 [9]): 0
drug sensitivity score (Caco-2 [10]): 0
cell viability (HepG2 [11]; 1 nM): 102 ± 8.3%
cell viability (HepG2 [11]; 10 nM): 103 ± 2.5%
cell viability (HepG2 [11]; 100 nM): 102.8 ± 0.78%
cell viability (HepG2 [11]; 1000 nM): 100 ± 5.1%
cell viability (HepG2 [11]; 10000 nM): 102 ± 3.8%
cell viability (Calu-3 [12]; 1 nM): 95.9 ± 3.8%
cell viability (Calu-3 [12]; 10 nM): 109 ± 4.2%
cell viability (Calu-3 [12]; 100 nM): 106 ± 3.9%
cell viability (Calu-3 [12]; 1000 nM): 105 ± 2.9%
cell viability (Calu-3 [12]; 10000 nM): 110 ± 15%
cell viability (U2OS [13]; 1 nM): 101 ± 4.5%
cell viability (U2OS [13]; 10 nM): 104 ± 3.9%
cell viability (U2OS [13]; 100 nM): 99 ± 1.3%
cell viability (U2OS [13]; 1000 nM): 101 ± 5.1%
cell viability (U2OS [13]; 10000 nM): 97.5 ± 4.2%
cell viability (Vero E6 [14]; 1 nM): 96.6 ± 0.28%
cell viability (Vero E6 [14]; 10 nM): 101 ± 2.3%
cell viability (Vero E6 [14]; 100 nM): 96.7 ± 4.3%
cell viability (Vero E6 [14]; 1000 nM): 97 ± 0.99%
cell viability (Vero E6 [14]; 10000 nM): 94.3 ± 8.8%
cell viability (Caco-2 [15]; 1 nM): 96.1 ± 13%
cell viability (Caco-2 [15]; 10 nM): 99.5 ± 4.8%
cell viability (Caco-2 [15]; 100 nM): 94.4 ± 5.4%
cell viability (Caco-2 [15]; 1000 nM): 96 ± 7.1%
cell viability (Caco-2 [15]; 10000 nM): 93.7 ± 7.5%

O=C(O)CCNc1cc(N2CCc3ccccc3CC2)nc(-c2cccnc2)n1 [GSK-J2]
relative viability EC50 (HepG2 [1]): > 10 µM
relative viability EC50 (Calu-3 [2]): > 10 µM
relative viability EC50 (U2OS [3]): > 10 µM
relative viability EC50 (Vero E6 [4]): > 10 µM
relative viability EC50 (Caco-2 [5]): > 10 µM
drug sensitivity score (HepG2 [6]): 0
drug sensitivity score (Calu-3 [7]): 0
drug sensitivity score (U2OS [8]): 0
drug sensitivity score (Vero E6 [9]): 0
drug sensitivity score (Caco-2 [10]): 0.2
cell viability (HepG2 [11]; 1 nM): 99.7%
cell viability (HepG2 [11]; 10 nM): 97.3%
cell viability (HepG2 [11]; 100 nM): 96.6%
cell viability (HepG2 [11]; 1000 nM): 98.8%
cell viability (HepG2 [11]; 10000 nM): 103%
cell viability (Calu-3 [12]; 1 nM): 100%
cell viability (Calu-3 [12]; 10 nM): 97.1%
cell viability (Calu-3 [12]; 100 nM): 91.5%
cell viability (Calu-3 [12]; 1000 nM): 105%
cell viability (Calu-3 [12]; 10000 nM): 97.2%
cell viability (U2OS [13]; 1 nM): 98.5%
cell viability (U2OS [13]; 10 nM): 95.4%
cell viability (U2OS [13]; 100 nM): 94.8%
cell viability (U2OS [13]; 1000 nM): 98.3%
cell viability (U2OS [13]; 10000 nM): 91.2%
cell viability (Vero E6 [14]; 1 nM): 97.3%
cell viability (Vero E6 [14]; 10 nM): 108%
cell viability (Vero E6 [14]; 100 nM): 98.9%
cell viability (Vero E6 [14]; 1000 nM): 98%
cell viability (Vero E6 [14]; 10000 nM): 99.1%
cell viability (Caco-2 [15]; 1 nM): 96.6%
cell viability (Caco-2 [15]; 10 nM): 100%
cell viability (Caco-2 [15]; 100 nM): 98.6%
cell viability (Caco-2 [15]; 1000 nM): 94.8%
cell viability (Caco-2 [15]; 10000 nM): 87.1%

Cc1cc(SCc2sc(-c3ccc(C(F)(F)F)c(F)c3)nc2C)ccc1OCC(=O)O [GW-0742]
relative viability EC50 (HepG2 [1]): > 10 µM
relative viability EC50 (Calu-3 [2]): > 10 µM
relative viability EC50 (U2OS [3]): > 10 µM
relative viability EC50 (Vero E6 [4]): > 10 µM
relative viability EC50 (Caco-2 [5]): > 10 µM
drug sensitivity score (HepG2 [6]): 0
drug sensitivity score (Calu-3 [7]): 0
drug sensitivity score (U2OS [8]): 0
drug sensitivity score (Vero E6 [9]): 0
drug sensitivity score (Caco-2 [10]): 0
cell viability (HepG2 [11]; 1 nM): 102%
cell viability (HepG2 [11]; 10 nM): 74.6%
cell viability (HepG2 [11]; 100 nM): 94%
cell viability (HepG2 [11]; 1000 nM): 90.1%
cell viability (HepG2 [11]; 10000 nM): 99.9%
cell viability (Calu-3 [12]; 1 nM): 95.1%
cell viability (Calu-3 [12]; 10 nM): 94.8%
cell viability (Calu-3 [12]; 100 nM): 92.5%
cell viability (Calu-3 [12]; 1000 nM): 90.5%
cell viability (Calu-3 [12]; 10000 nM): 98.3%
cell viability (U2OS [13]; 1 nM): 102%
cell viability (U2OS [13]; 10 nM): 103%
cell viability (U2OS [13]; 100 nM): 97.9%
cell viability (U2OS [13]; 1000 nM): 104%
cell viability (U2OS [13]; 10000 nM): 99.7%
cell viability (Vero E6 [14]; 1 nM): 96.3%
cell viability (Vero E6 [14]; 10 nM): 101%
cell viability (Vero E6 [14]; 100 nM): 96.7%
cell viability (Vero E6 [14]; 1000 nM): 98.3%
cell viability (Vero E6 [14]; 10000 nM): 99%
cell viability (Caco-2 [15]; 1 nM): 99.9%
cell viability (Caco-2 [15]; 10 nM): 101%
cell viability (Caco-2 [15]; 100 nM): 89.1%
cell viability (Caco-2 [15]; 1000 nM): 106%
cell viability (Caco-2 [15]; 10000 nM): 87.2%

CCC(=O)N1CCOc2c(cc(-c3ccc(OC)c(OC)c3)cc2OC[C@H]2CCCN(C)C2)C1 [I-CBP-112]
relative viability EC50 (HepG2 [1]): > 10 µM
relative viability EC50 (Calu-3 [2]): > 10 µM
relative viability EC50 (U2OS [3]): > 10 µM
relative viability EC50 (Vero E6 [4]): > 10 µM
relative viability EC50 (Caco-2 [5]): > 10 µM
drug sensitivity score (HepG2 [6]): 0.1
drug sensitivity score (Calu-3 [7]): 0.3
drug sensitivity score (U2OS [8]): 0
drug sensitivity score (Vero E6 [9]): 0.5
drug sensitivity score (Caco-2 [10]): 0
cell viability (HepG2 [11]; 1 nM): 96.6%
cell viability (HepG2 [11]; 10 nM): 107%
cell viability (HepG2 [11]; 100 nM): 87.5%
cell viability (HepG2 [11]; 1000 nM): 104%
cell viability (HepG2 [11]; 10000 nM): 86%
cell viability (Calu-3 [12]; 1 nM): 96.6%
cell viability (Calu-3 [12]; 10 nM): 95%
cell viability (Calu-3 [12]; 100 nM): 99.5%
cell viability (Calu-3 [12]; 1000 nM): 95.9%
cell viability (Calu-3 [12]; 10000 nM): 87.4%
cell viability (U2OS [13]; 1 nM): 98.5%
cell viability (U2OS [13]; 10 nM): 92%
cell viability (U2OS [13]; 100 nM): 95.5%
cell viability (U2OS [13]; 1000 nM): 95.3%
cell viability (U2OS [13]; 10000 nM): 97.8%
cell viability (Vero E6 [14]; 1 nM): 105%
cell viability (Vero E6 [14]; 10 nM): 102%
cell viability (Vero E6 [14]; 100 nM): 97.2%
cell viability (Vero E6 [14]; 1000 nM): 105%
cell viability (Vero E6 [14]; 10000 nM): 78.4%
cell viability (Caco-2 [15]; 1 nM): 101%
cell viability (Caco-2 [15]; 10 nM): 99.9%
cell viability (Caco-2 [15]; 100 nM): 103%
cell viability (Caco-2 [15]; 1000 nM): 98.6%
cell viability (Caco-2 [15]; 10000 nM): 94.7%
